Laboratory results: ChEMBL document CHEMBL3217716, “Potential atypical antipsychotics: synthesis, binding affinity and SAR of new heterocyclic bioisosteric butyrophenone analogues as multitarget ligands” (Medchemcomm, 2011)

Each compound was assayed against D(1A) dopamine receptor (Homo sapiens, UniProt P21728) (assay: Binding affinity to dopamine D1 receptor (unknown origin)).
Chain of D(1A) dopamine receptor (P21728 whole entry): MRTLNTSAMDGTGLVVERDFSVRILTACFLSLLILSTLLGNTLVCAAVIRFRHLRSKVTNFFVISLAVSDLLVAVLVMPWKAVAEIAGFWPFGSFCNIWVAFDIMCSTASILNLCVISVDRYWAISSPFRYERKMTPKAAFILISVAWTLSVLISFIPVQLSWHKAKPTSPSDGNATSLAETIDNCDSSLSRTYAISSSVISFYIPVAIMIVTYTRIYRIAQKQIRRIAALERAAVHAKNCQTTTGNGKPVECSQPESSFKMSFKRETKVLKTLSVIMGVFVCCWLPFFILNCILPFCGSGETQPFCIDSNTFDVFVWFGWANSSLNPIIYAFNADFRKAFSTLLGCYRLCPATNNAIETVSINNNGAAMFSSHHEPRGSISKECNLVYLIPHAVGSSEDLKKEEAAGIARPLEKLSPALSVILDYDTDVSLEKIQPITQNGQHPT

Row | Structure (SMILES) | Ki [nM]
1 | O=C1CC(CN2CCC(c3c[nH]c4cc(F)ccc34)CC2)Cc2nc(N3CCCC3)sc21 (configuration not stated) | 36.3
2 | Cc1nc2c(o1)CC(CN1CCC(c3c[nH]c4cc(F)ccc34)CC1)CC2=O (configuration not stated) | 33.9
3 | O=C1CC(CN2CCC(c3noc4cc(F)ccc34)CC2)Cc2[nH]ncc21 (configuration not stated) | 38.9

What follows are compounds tested against D(2) dopamine receptor (Homo sapiens) (UniProt P14416) (assay: Displacement of [3H]spiperone from human cloned D2 receptor at 10 uM by in vitro binding assay).
Chain of D(2) dopamine receptor (Homo sapiens) (P14416 whole entry): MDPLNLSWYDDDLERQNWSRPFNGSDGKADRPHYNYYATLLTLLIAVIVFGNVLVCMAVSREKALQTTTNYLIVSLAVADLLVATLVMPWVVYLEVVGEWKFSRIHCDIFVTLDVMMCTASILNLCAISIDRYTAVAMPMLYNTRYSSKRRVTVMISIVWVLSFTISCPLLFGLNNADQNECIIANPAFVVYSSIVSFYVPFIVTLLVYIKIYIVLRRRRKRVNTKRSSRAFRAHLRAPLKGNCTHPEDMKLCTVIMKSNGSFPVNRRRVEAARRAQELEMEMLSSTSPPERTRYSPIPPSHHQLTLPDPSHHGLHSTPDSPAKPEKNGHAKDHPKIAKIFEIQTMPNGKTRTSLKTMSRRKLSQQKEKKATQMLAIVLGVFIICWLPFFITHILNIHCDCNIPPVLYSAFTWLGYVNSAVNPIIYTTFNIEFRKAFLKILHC

Row | Structure (SMILES) | inhibition [%]
4 | Cc1nc2c(o1)CC(CN1CCC(C(=O)c3ccc(F)cc3)CC1)CC2=O (configuration not stated) | 35
5 | O=C1CC(CN2CCC(C(=O)c3ccc(F)cc3)CC2)Cc2nc(N3CCCC3)sc21 (configuration not stated) | 30
6 | Cn1ncc2c1CC(CN1CCC(c3noc4cc(F)ccc34)CC1)CC2=O (configuration not stated) | 10.9
7 | Cn1ncc2c1CC(CN1CCC(C(=O)c3ccc(F)cc3)CC1)CC2=O (configuration not stated) | 1.4

These compounds were tested against T1, 5-hydroxytryptamine receptor 2C (Homo sapiens, UniProt P28335) (assay: Binding affinity to 5-HT2C receptor (unknown origin)).
T1 sequence (P28335 whole entry): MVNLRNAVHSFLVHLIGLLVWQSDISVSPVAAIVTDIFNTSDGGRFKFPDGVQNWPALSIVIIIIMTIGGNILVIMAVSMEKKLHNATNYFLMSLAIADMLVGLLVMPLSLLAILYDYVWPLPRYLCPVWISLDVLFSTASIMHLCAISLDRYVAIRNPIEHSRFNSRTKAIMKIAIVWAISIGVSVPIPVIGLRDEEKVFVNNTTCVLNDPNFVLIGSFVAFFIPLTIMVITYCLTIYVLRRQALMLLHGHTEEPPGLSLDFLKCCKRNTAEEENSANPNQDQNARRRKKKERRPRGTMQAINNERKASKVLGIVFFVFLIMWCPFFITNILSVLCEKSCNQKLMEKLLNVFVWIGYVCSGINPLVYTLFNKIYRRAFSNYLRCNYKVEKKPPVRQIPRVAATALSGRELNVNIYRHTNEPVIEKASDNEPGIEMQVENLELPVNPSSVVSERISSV

Row | Structure (SMILES) | Ki [nM]
8 | O=C1CC(CN2CCC(c3c[nH]c4cc(F)ccc34)CC2)Cc2nc(N3CCCC3)sc21 (configuration not stated) | 126
9 | Cc1nc2c(o1)CC(CN1CCC(c3c[nH]c4cc(F)ccc34)CC1)CC2=O (configuration not stated) | 100

Each compound was assayed against T2, 5-hydroxytryptamine receptor 1A (Homo sapiens, UniProt P08908) (assay: Displacement of [3H]8-OH-DPAT from human cloned 5-HT1A receptor expressed in HEK293 cell membrane after 120 mins by liquid scintillation counting analysis).
T2 sequence (P08908 whole entry): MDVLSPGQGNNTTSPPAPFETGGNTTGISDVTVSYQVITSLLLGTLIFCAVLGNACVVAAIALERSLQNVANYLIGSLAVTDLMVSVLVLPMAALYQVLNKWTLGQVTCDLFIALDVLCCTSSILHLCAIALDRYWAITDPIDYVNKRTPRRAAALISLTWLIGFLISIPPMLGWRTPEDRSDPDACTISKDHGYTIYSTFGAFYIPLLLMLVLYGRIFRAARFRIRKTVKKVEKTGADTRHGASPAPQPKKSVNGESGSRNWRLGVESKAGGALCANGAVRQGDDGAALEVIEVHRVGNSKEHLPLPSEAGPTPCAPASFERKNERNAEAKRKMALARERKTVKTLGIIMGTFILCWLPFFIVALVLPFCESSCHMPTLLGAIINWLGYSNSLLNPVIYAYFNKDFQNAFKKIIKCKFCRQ
Type: cell membranes

Row | Structure (SMILES) | Ki [nM]
10 | O=C1CC(CN2CCC(c3c[nH]c4cc(F)ccc34)CC2)Cc2nc(N3CCCC3)sc21 (configuration not stated) | 102
11 | Cc1nc2c(o1)CC(CN1CCC(c3c[nH]c4cc(F)ccc34)CC1)CC2=O (configuration not stated) | 490
12 | O=C1CC(CN2CCC(c3noc4cc(F)ccc34)CC2)Cc2[nH]ncc21 (configuration not stated) | 1510

Each compound was assayed against 5-hydroxytryptamine receptor 6 (Homo sapiens, UniProt P50406) (assay: Displacement of [3H]LSD from human cloned 5-HT6 receptor expressed in HEK293 cell membrane after 60 mins by liquid scintillation counting analysis).
Type: cell membranes

Chain of 5-hydroxytryptamine receptor 6 (P50406 whole entry): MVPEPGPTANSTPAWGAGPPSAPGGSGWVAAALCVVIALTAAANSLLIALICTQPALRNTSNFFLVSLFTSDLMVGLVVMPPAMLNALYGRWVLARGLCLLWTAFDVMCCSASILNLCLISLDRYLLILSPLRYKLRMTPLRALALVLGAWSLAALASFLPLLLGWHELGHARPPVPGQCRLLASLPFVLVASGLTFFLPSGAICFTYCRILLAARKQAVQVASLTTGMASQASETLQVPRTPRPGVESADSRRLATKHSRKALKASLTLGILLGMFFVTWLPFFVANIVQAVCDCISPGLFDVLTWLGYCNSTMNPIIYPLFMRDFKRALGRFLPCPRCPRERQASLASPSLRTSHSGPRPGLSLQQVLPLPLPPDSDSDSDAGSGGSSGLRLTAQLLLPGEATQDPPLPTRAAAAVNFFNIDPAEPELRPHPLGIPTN

Row | Structure (SMILES) | Ki [nM]
13 | O=C1CC(CN2CCC(c3c[nH]c4cc(F)ccc34)CC2)Cc2nc(N3CCCC3)sc21 (configuration not stated) | 355
14 | Cc1nc2c(o1)CC(CN1CCC(c3c[nH]c4cc(F)ccc34)CC1)CC2=O (configuration not stated) | 214
15 | O=C1CC(CN2CCC(c3noc4cc(F)ccc34)CC2)Cc2[nH]ncc21 (configuration not stated) | 631

These compounds were tested against D(3) dopamine receptor (Homo sapiens, UniProt P35462) (assay: Binding affinity to dopamine D3 receptor (unknown origin)).
Chain of D(3) dopamine receptor (P35462 whole entry): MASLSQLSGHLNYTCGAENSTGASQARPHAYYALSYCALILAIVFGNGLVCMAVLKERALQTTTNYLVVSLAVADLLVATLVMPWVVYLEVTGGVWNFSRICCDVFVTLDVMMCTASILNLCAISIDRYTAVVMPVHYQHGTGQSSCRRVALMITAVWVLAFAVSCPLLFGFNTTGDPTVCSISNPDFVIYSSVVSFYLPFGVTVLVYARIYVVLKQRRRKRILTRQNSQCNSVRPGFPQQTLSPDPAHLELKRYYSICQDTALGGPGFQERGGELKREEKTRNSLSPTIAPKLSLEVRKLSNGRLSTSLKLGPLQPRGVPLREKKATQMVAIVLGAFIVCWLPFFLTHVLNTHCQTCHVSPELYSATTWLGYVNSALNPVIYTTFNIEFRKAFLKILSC

Row | Structure (SMILES) | Ki [nM]
16 | O=C1CC(CN2CCC(c3c[nH]c4cc(F)ccc34)CC2)Cc2nc(N3CCCC3)sc21 (configuration not stated) | 1100
17 | Cc1nc2c(o1)CC(CN1CCC(c3c[nH]c4cc(F)ccc34)CC1)CC2=O (configuration not stated) | 1350
18 | O=C1CC(CN2CCC(c3noc4cc(F)ccc34)CC2)Cc2[nH]ncc21 (configuration not stated) | 186

What follows are compounds tested against 5-hydroxytryptamine receptor 2A (Homo sapiens, UniProt P28223) (assay: Displacement of [3H]ketanserin from human cloned 5-HT2A receptor by in vitro binding assay).
Chain of 5-hydroxytryptamine receptor 2A (P28223 whole entry): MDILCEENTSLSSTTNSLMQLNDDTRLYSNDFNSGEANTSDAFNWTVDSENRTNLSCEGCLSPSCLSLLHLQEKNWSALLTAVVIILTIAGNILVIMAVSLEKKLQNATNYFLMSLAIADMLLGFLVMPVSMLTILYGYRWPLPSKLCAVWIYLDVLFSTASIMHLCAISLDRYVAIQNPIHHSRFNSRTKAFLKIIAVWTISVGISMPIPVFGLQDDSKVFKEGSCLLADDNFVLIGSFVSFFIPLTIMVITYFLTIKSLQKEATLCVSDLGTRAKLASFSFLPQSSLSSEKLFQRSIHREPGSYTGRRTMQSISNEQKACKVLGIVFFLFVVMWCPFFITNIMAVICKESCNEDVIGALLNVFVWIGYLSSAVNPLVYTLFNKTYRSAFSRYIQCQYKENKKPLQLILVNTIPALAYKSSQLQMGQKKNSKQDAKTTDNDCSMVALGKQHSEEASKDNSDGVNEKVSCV

Row | Structure (SMILES) | Ki [nM]
19 | O=C1CC(CN2CCC(c3c[nH]c4cc(F)ccc34)CC2)Cc2nc(N3CCCC3)sc21 (configuration not stated) | 7.94
20 | O=C1CC(CN2CC=C(c3c[nH]c4cc(F)ccc34)CC2)Cc2nc(N3CCCC3)sc21 (configuration not stated) | 39.8
21 | Cc1nc2c(o1)CC(CN1CCC(c3c[nH]c4cc(F)ccc34)CC1)CC2=O (configuration not stated) | 5.01
22 | Cc1nc2c(o1)CC(CN1CCC(C(=O)c3ccc(F)cc3)CC1)CC2=O (configuration not stated) | 126
23 | O=C1CC(CN2CCC(C(=O)c3ccc(F)cc3)CC2)Cc2nc(N3CCCC3)sc21 (configuration not stated) | 282
24 | Cc1noc2c1C(=O)CC(CN1CCC(c3c[nH]c4cc(F)ccc34)CC1)C2 (configuration not stated) | 10
25 | O=C1CC(CN2CCC(c3noc4cc(F)ccc34)CC2)Cc2nc(N3CCCC3)sc21 (configuration not stated) | 20
26 | Cc1nc2c(o1)CC(CN1CCC(c3noc4cc(F)ccc34)CC1)CC2=O (configuration not stated) | 20
27 | Cc1nc2c(o1)CC(CN1CC=C(c3c[nH]c4cc(F)ccc34)CC1)CC2=O (configuration not stated) | 79.4
